Results taken from US7964736B2, “Phosphagen synthesis” (Nour Heart, Inc., priority 2004, dated 2011).
Like-named read-outs stand apart in the source and are kept apart here.

Experiments:
[1] = system: isolated rabbit hearts; assay: Isolated ischemic rabbit hearts; assay type: in vivo
[2] = system: heart (cardioprotection); assay: Dose-response study of cardioprotective effect; assay type: in vivo
[3] = system: chopped whole brain; conditions: 0.5% in-vitro for 90 minutes; cited from earlier work
[4] = system: canine heart, hypothermic cardioplegic arrest; conditions: cited from earlier work; for results (restoration of cardiac function): canine
[5] = system: ischemic isolated rat hearts; conditions: cited from earlier work
[6] = system: isolated rabbit hearts; conditions: cited from earlier work
[7] = system: canine heart, regional warm ischemia (LAD); conditions: cited from earlier work
[8] = system: canine heart, regional warm ischemia (LAD); assay: Regional warm ischemia (LAD), intact AMI model: coronary artery occlusion followed by reperfusion; assay type: in vivo; conditions: LAD for 1 hour, and 2 hours reperfusion
[9] = system: dog hearts; assay: Inotropic or chronotropic effect on dog hearts; assay type: in vivo
Text: As described above, although the mechanism by which CCr preserves the heart during ischemia and restores cardiac function during reperfusion is not fully understood, it is likely to be related to preservation of ATP. […] Since the breakdown of ATP is the immediate source of energy for contraction, and that contractile performance decreases precipitously and ceases when only 20% of ATP is depleted, the reported CCr preservation of over 85% of ATP (loss of only 15%) in ischemic myocardium is likely the major contributor to the observed restoration of post-ischemic myocardial contractility (see Allam M E, et al., Surg. Forum XLI:246-249, 1990, which is incorporated by reference in its entirety).

[10] = system: rat heart, global warm ischemia; conditions: ischemia time 7, 9, 10 min; cited from earlier work
[11] = system: rat hearts, normothermic cardioplegic arrest; conditions: ischemia time 40 min; cited from earlier work
[12] = intact canine model, coronary artery occlusion followed by reperfusion

NC1=NCCN1CC(=O)O [CCr, 1-carboxymethyl-2-iminoimidazolidine]
tissue damage ([1]; 600 mg/kg intravenous for 2 hours prior to removing and perfusing hearts in-vitro for two hours): did not induce tissue damage
histology after 2 hours reperfusion (contraction bands, eosinophilic changes) ([1]; 600 mg/kg intravenous, versus control hearts): only occasional small foci of contraction bands and no significant eosinophilic changes
protection (Nourin-1, ATP and CrP levels) ([1]; hearts perfused with drug, without preinjection): no protection was observed
cardioprotective effect ([2]; 150 mg/kg): No effect
cardioprotective effect ([2]; 300 mg/kg): strong cardioprotective effect
cardioprotective effect ([2]; 600 mg/kg): strong cardioprotective effect
protection of brain tissues from ischemic injury [3]: protected
defibrillation ([4]; bypass surgery model, untreated canines required external defibrillation): defibrillated spontaneously
results (restoration of cardiac function) ([4]; ischemia time 1 hr): Restoration
results (restoration of cardiac function) ([4]; ischemia time 3 hrs): Restoration
defibrillation during reperfusion ([5]; fed rats versus control rats): spontaneously defibrillated sooner
reduction of myocardial ATP, exhaustion of high-energy phosphates, onset of rigor tension during cardiac ischemia ([5]; long-term feeding (up to 3 weeks) with 1%, rats and chickens): significantly delayed
ATP depletion and onset of rigor ([5]; prior feeding to rats, ischemic isolated hearts): delayed ATP depletion and the onset of rigor
number of hearts recovering mechanical function upon reperfusion ([5]; treated rats compared to controls): significantly higher
levels of ATP and CrP ([6]; isolated ischemic rabbit hearts): maintained high levels
Nourin-1 released ([6]; treated hearts versus controls): significant reduction
ATP maintained, of normal non-ischemic levels [7, 12]: 85%
CrP maintained, of normal non-ischemic levels [7, 12]: 97%
loss of ATP [7, 12]: 15%
loss of CrP [7, 12]: 3%
results (restoration of cardiac function) ([7]; ischemia time 1 hr, canine, drug prior to ischemia): Restoration
preservation of ATP ([7]; ischemic myocardium): over 85%
cell damage compared to control hearts [8]: marked reduction in cell damage
inotropic or chronotropic effect [9]: no inotropic or chronotropic effect
results (restoration of cardiac function) [10]: Restoration
results (restoration of cardiac function) [11]: Restoration

CN(CC(=O)O)C(=N)N [Cr, creatine, reference compound]
ATP and CrP lost ([6]; isolated ischemic rabbit hearts, control treatment): more than 95%
